Series [1] concerns the target T1, AATase (Saccharomyces cerevisiae, UniProt P40353, N391K/T84I).
T1 construct: culturing yeast cells of Saccharomyces cerevisiae KYOKAI No. 7 and recovering and purifying the crude enzyme; endogenous in cells; host or cells: Saccharomyces cerevisiae KYOKAI No. 7 (sake yeast)
T1 sequence (P40353 1-525 T84I/N391K): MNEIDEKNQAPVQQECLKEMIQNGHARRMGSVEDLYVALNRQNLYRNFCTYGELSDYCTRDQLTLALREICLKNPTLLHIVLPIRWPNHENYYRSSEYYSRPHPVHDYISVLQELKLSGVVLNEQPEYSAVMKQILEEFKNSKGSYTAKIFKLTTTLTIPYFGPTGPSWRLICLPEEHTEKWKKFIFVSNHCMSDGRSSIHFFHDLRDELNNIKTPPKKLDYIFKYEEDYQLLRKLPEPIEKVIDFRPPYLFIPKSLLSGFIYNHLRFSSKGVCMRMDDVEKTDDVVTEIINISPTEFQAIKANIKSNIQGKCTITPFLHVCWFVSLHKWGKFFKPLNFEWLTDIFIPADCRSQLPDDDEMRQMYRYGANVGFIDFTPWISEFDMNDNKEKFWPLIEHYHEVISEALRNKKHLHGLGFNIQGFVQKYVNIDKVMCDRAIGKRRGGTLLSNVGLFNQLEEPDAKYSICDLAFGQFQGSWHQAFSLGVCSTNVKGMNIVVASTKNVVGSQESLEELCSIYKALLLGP
Nature of the series: biochemical. It is filed as biochemical.

Series [2] deals with T1, AATase. Nature of the series: biochemical. Particulars: read-out: Relative activity (%).
Substrate in series [3]: CC(=O)SCCNC(=O)CCNC(=O)[C@H](O)C(C)(C)COP(=O)(O)OP(=O)(O)OC[C@H]1O[C@@H](n2cnc3c(N)ncnc32)[C@H](O)[C@@H]1OP(=O)(O)O
Nature of the series: Km value of AATase to isoamyl alcohol and acetyl-CoA. Particulars: other: substrate of AATase; pH 7.5; 25.0 °C. The series is classed as biochemical, Saccharomyces cerevisiae. The method, then:
(§1) A 1 ml of a solution containing a buffer for AATase reaction (25 mM imidazole hydrochloride buffer (pH 7.5), 1 mM acetyl-CoA, 0.1% Triton X-100, 0.5% isoamyl alcohol, 1 mM dithiothreitol, 0.1M sodium chloride, 20% glycerol: or 10 mM phosphate buffer (pH 7.5), 1 mM acetyl-CoA, 0.1% Triton X-100, 0.5% isoamyl alcohol, 1 mM dithiothreitol, 0.1M sodium chloride, 20% glycerol) and the enzyme of the present invention was encapsulated into a 20 ml vial and reacted at 25° C. for 1 hour. After incubation, the vial was opened and the reaction was stopped by adding 0.6 g of sodium chloride. n-Butanol was added as an internal standard to the reaction mixture up to 50 ppm. The vial was capped with a teflon stopper. Then, the isoamyl acetate generated was determined with the head space gas chromatography (Shimadzu GC-9A, HSS-2A) under the following condition: […]

Substrate in series [4]: CC(C)CCO
The description is as above. It is filed as biochemical, Saccharomyces cerevisiae. Particulars: other: substrate of AATase; pH 7.5; 25.0 °C. The procedure:
as §1

“Also recorded” adds a separate entry of the source. Read-outs that look alike come from different tables or passages of the source.

As for `c1cnc2c(c1)ccc1cccnc12` [1,10-phenanthroline], in series [1] (read-out: Relative activity (%)), the activity at 1000 µM came out at 87.9%. On to `O=C(O)c1cc(SSc2ccc([N+](=O)[O-])c(C(=O)O)c2)ccc1[N+](=O)[O-]` [DTNB, Dithiobis(2nitrobenzoic acid)], for which, in series [1] (inhibitor 0.1 mM per footnote (head: 1 mM), None = 100), the “Relative activity (%)” value was 0%. As for `CCCCC/C=C\C/C=C\CCCCCCCC(=O)O` [Linoleic acid], in series [2], the activity at 2000 µM worked out at 4.3%. Turning to `CC/C=C\C/C=C\C/C=C\CCCCCCCC(=O)O` [Linolenic acid], the activity at 2000 µM in series [2] turned out to be 32%. On the same count and under the same terms, next, `CCCCCCCCCCCCCC(=O)O` [Myristic acid]: 60.5%; `CCCCCCCC/C=C\CCCCCCCC(=O)O` [Oleic acid]: 59.6%. `O=C(O)c1cc[c]([Hg][Cl])cc1` [PCMB, pChloromercuribenzoic acid]: in series [1], the “Inhibition of the enzyme (in words)” value is “inhibited strongly; also recorded: intensively inhibited” and the “Relative activity (%)” value is 0%. For the molecule `O=S(=O)(F)Cc1ccccc1` [PMSF, Phenylmethanesulfonyl fluoride], the “Relative activity (%)” value in series [1] is 70.2%.

For `CCCCCCCCCCCCCCCC(=O)O` [Palmitic acid], in series [2], the activity at 2000 µM worked out at 88.1%. The same measure, in the same setting: next, `CCCCCC/C=C\CCCCCCCC(=O)O` [Palmitoleic acid]: 16.7%. Take `CCCCCCCCCCCCCCCCCC(=O)O` [Stearic acid]: the activity at 2000 µM in series [2] worked out at 80.5%.

B1: AATase (Saccharomyces cerevisiae S288C; N391K/T84I) (protein)
chain: T1 sequence (P40353 1-525 T84I/N391K)
notes: culturing yeast cells of Saccharomyces cerevisiae KYOKAI No. 7 and recovering and purifying the crude enzyme; endogenous in cells; host or cells: Saccharomyces cerevisiae KYOKAI No. 7 (sake yeast)
As for B1, the figures for the Km in series [3] and in series [4] were 0.19 mM and 29.8 mM, respectively.

The term Km denotes the concentration of substrate that gives half-maximal velocity.
